“Also recorded” adds a separate entry of the source.

Assay type in all cases: cell-based, human
Assay [1] relates to HPMVEC. Kind of assay: Caspase 3/7 assay of apoptosis in HPMVEC exposed to CSE. Conditions: HPMVEC pre-treated with Iloprost 1 μM and 10 μM for 30 minutes prior to CSE exposure. As to the method:
Human pulmonary microvascular endothelial cells (HPMVEC, passage 4-6) and EGM-2-MV medium (containing 5% FBS, hydrocortisone, human recombinant VEGF, recombinant human fibroblast growth factor-B, recombinant insulin-like growth factor-1, human recombinant epidermal growth factor, ascorbic acid, gentamycin and amphotericin-B) were purchased from Clonetics Corporation (Baltimore, Md., USA). Cells were grown to confluency at 37° C. in a humidified atmosphere of 21% O2, 5% CO2. N-acetyl-L-cysteine (NAC) and diphenyleneiodonium chloride (DPI) were obtained from Sigma-Aldrich (St. Louis, Mo., USA). N-nitro-l-arginine methyl ester (L-NAME) was obtained from Cayman Chemical (Ann Arbor, Mich.). […]
Immunohistochemical staining on both PGI2S transgenic mice and wild type littermates was conducted using similar protocols to the above, however, cleaved caspase 3 antibody (Cell Signaling technology Danvers, Mass.) was used to assess apoptosis. In a blinded fashion, small, medium and large pulmonary arteries were scored for endothelial caspase staining. In-vitro, the rate of apoptosis in primary human microvascular endothelial cells was analyzed by the Vybrant Apoptosis Assay Kit from Molecular Probes Inc. (Eugene, Oreg., USA) according to the manufacturer's protocol. […] In addition, apoptosis of HPMVEC was assessed by Caspase 3/7 assay according to the protocol provided (Promega Madison, Wis.).

In assay [2] the test system is PGI2S gene expression. Put plainly: Real time RT-PCR of PGI2S gene expression in HPMVEC. Conditions: for PGI2S gene (mRNA) expression after aldehyde exposure: HPMVEC, 1 and 10 μM aldehyde, about 24 hours after exposure; for effect of pre-incubation on PGI2S gene expression in CSE-exposed cells: four hour pre-incubation (SOD mimetic 100 U/ml, catalase 100 U/ml, DPI 0.1 μM, L-NAME 1 mM), 1% CSE for 4 hours. As to the method: (§1) Human pulmonary microvascular endothelial cells (HPMVEC, passage 4-6) and EGM-2-MV medium (containing 5% FBS, hydrocortisone, human recombinant VEGF, recombinant human fibroblast growth factor-B, recombinant insulin-like growth factor-1, human recombinant epidermal growth factor, ascorbic acid, gentamycin and amphotericin-B) were purchased from Clonetics Corporation (Baltimore, Md., USA). Cells were grown to confluency at 37° C. in a humidified atmosphere of 21% O2, 5% CO2. N-acetyl-L-cysteine (NAC) and diphenyleneiodonium chloride (DPI) were obtained from Sigma-Aldrich (St. Louis, Mo., USA). N-nitro-l-arginine methyl ester (L-NAME) was obtained from Cayman Chemical (Ann Arbor, Mich.). Z-Asp2,6-dichlorobenzoylmethylketone (Caspase Family Inhibitor IV) was obtained from Alexis Biochemicals (San Diego, Calif., USA). Both an SOD mimetic and catalase were obtained from National Jewish Medical Center. Acrolein, an α,β-unsaturated aldehyde, and several […] aldehydes (acetaldehyde, crotonaldehyde, proprionaldehyde (i.e., propanal) were purchased from Sigma Aldrich (St. Louis, Mo., USA)
(§2) Cigarette smoke extract was prepared by a modification of a previously published method, e.g., Carp et al., Am. Rev. Respir. Dis., 1978, 118, 617-621. Briefly, one non-filtered Camel cigarette (R.J. Reynolds, Winston-Salem, N.C.) was passed through 10 mL of Phosphate-buffered saline (PBS) using a vacuum pump. This 100% CSE was adjusted to pH 7.4 and filtered through a […] pore filter (Fisher, Hampton, N.H., USA) and the CSE was diluted to the appropriate concentration and added to endothelial cells within 10 min of preparation.
(§3) Total RNA was extracted using the RNeasy Mini Kit (Qiagen, Valencia, Calif.), following the manufacturer's instructions. 1 μg of RNA was reverse-transcribed using random primer and MultiScribe RT (High-Capacity cDNA Archive Kit, Applied Biosystems, Foster City, Calif.). Assay-on-demand gene expression probe for PGI2S: Hs00168766, COX-1:Hs00377721, COX-2:Hs00153133, cPLA2:Hs00233352, and β-actin: Hs999999903 were obtained from Applied Biosystems (Foster City, Calif.) PCR reactions were performed in 20 μL volumes containing 9 μL of cDNA, 10 μL of TaqMan Master Mix (Applied Biosystems) and 1 μL of assay-on-demand primer and probe. Real-time PCR was conducted on the Applied Biosystems GeneAmp 5700 sequence Detection System and signal was detected by the GeneAmp 5700 SDS software (Applied Biosystems). All values were reported relative to β-Actin expression.

For assay [3], the system named is COX-2 gene expression. Put plainly: Real time RT-PCR of COX-2 gene expression in HPMVEC. Conditions: for COX-2 gene expression after aldehyde exposure: HPMVEC, 1 and 10 μM acrolein; for effect of pre-incubation on COX-2 gene expression in CSE-exposed cells: four hour pre-incubation (SOD mimetic 100 U/ml, catalase 100 U/ml, DPI 0.1 μM, L-NAME 1 mM), 1% CSE for 4 hours. How it is done:
as §1, §2, §3

Assay [4] relates to PGI2S protein expression. Put plainly: Western blotting of PGI2S protein expression in HPMVEC. Conditions: about 48 hours post exposure. As to the method: as §1
20 μg of protein was separated on NuPAGE Novex 4-12% Bis-Tris Gel (Invitrogen Carlsbad, Calif., USA) and transferred to a polyvinylidene fluoride (PVDF) membrane (Invitrogen, Carlsbad, Calif., USA). The membrane was blocked with 5% nonfat dry milk in PBS containing 0.05% Tween (PBST) for 1 hour. […]

For `CC#CCC(C)[C@H](O)/C=C/[C@@H]1[C@H]2C/C(=C/CCCC(=O)O)C[C@H]2C[C@H]1O` (stereo partly drawn) [Iloprost], the “endothelial apoptosis as measured by caspase 3/7 activity” value in assay [1] is listed as “significant reduction; also recorded: at least partial protective anti-apoptotic effect”. With `C=CC=O` [Acrolein], the “PGI2S gene (mRNA) expression after aldehyde exposure” value (from here on “PGI2S gene (mRNA) expression”) in assay [2] was “reduction in PGI2S gene expression”. In addition, the “COX-2 gene expression after aldehyde exposure” value is given as “trend toward induction” in assay [3] and “No significant change” in assay [3] (listed as acrolein). Besides, the “PGI2S protein expression after aldehyde exposure” value in assay [4] is reported as “suppressed”.

On to catalase, for which the “effect of pre-incubation on PGI2S gene expression in CSE-exposed cells” value in assay [2] is “did not significantly affect”. In addition, the “effect of pre-incubation on COX-2 gene expression in CSE-exposed cells” value in assay [3] is recorded as “did not significantly affect”. Regarding `CC(=O)N[C@@H](CS)C(=O)O` [NAC, N-acetyl-L-cysteine], the “prevention of down-regulation of PGI2S gene expression by 1% CSE” value in assay [2] (HPMVEC pre-incubated four hours with 1 mM NAC, then 1% CSE, RT-PCR at four hours and 24 hours) was “no significant prevention”. In addition, the “effect on CSE mediated induction of COX-2 gene expression” value in assay [3] (HPMVEC pre-incubated four hours with 1 mM NAC, then 1% CSE, P<0.05) is on record as “significantly reduce or prevent”. For the compound `CC=O` [acetaldehyde], in assay [2], the “PGI2S gene (mRNA) expression” value is on record as “did not result in suppression”.

Turning to `C/C=C/C=O` [crotonaldehyde], in assay [2], the “PGI2S gene (mRNA) expression” value was “did not result in suppression”. Consider `CCC=O` [propionaldehyde], for which the “PGI2S gene (mRNA) expression” value is recorded as “did not result in suppression” in assay [2] and “statistically significant induction” in assay [2] (listed as Propionaldehyde).

In the case of `c1ccc2c(c1)[I+]c1ccccc1-2` [DPI, diphenyleneiodonium chloride], in assay [2], the “effect of pre-incubation on PGI2S gene expression in CSE-exposed cells” value is “did not significantly affect”. Besides, in assay [3], the “effect of pre-incubation on COX-2 gene expression in CSE-exposed cells” value is on record as “did not significantly affect”.
